From patent US10464915B2, “Dapagliflozin crystal form and preparation method and use thereof” (Jiangsu Hansoh Pharmaceutical Group Co., Ltd., priority 2016, dated 2019)
Like-named read-outs stand apart in the source and are kept apart here.

Tests used:
[1] = 25° C.
[2] = directly compressed, control pressure 10 KN; crystal form prepared in Example 8; FIG. 4
Source text: The crystal form prepared in the Example 8 of the present invention was directly compressed by a tableting machine, and the control pressure was 10 KN.

## CCOc1ccc(Cc2cc([C@@H]3O[C@H](CO)[C@@H](O)[C@H](O)[C@H]3O)ccc2Cl)cc1 [Crystal form E, 2-chloro-5-(β-D-glucopyranosyl-1-yl)-4′-ethoxydiphenylmethane]
40° C., 0 day
  Crystal form: Crystal form E
  Purity: 99.9%
40° C., 5 days
  Crystal form: Crystal form E
  Purity: 99.9%
40° C., 10 days
  Crystal form: Crystal form E
  Purity: 99.9%
40° C., 30 days
  Crystal form: Crystal form E
  Purity: 99.9%
Lighting (5000 lux), 0 day
  Crystal form: Crystal form E
  Purity: 99.9%
Lighting (5000 lux), 5 days
  Crystal form: Crystal form E
  Purity: 99.9%
Lighting (5000 lux), 10 days
  Crystal form: Crystal form E
  Purity: 99.9%
Lighting (5000 lux), 30 days
  Crystal form: Crystal form E
  Purity: 99.9%
High temperature (40° C.)
  Time stable: at least 30 days
Lighting (5000 Lux)
  Time stable: at least 30 days
[1]
  Time stable: at least 6 months
[1]; 0 day
  Crystal form: Crystal form E
  Purity: 99.9%
[1]; 1 month
  Crystal form: Crystal form E
  Purity: 99.9%
[1]; 3 months
  Crystal form: Crystal form E
  Purity: 99.9%
[1]; 6 months
  Crystal form: Crystal form E
  Purity: 99.9%
[2]
  Crystal form transformation under tableting: didn't undergo crystal form transformation
